Test results from patent US11013732B2, “Use of macroazapyridinophanes metal complexes in the treatment of diseases” (BIONOS BIOTECH, S.L, priority 2017, dated 2021).

Tested on: Caenorhabditis elegans expressing 110Q::TdTomato in mechanosensory neurons
Test: Gentle touch sensitivity in C. elegans' Huntington's disease model expressing 110Q::TdTomato
Assay type: in vivo
Settings: 110Q::TdTomato animals without metal complex (II)
Protocol: The study was conducted to assess whether administration of metal complex (II) improves the neurosensitivity (gentle touch sensitivity) in Caenorhabditis elegans' (C. elegans) Huntington's disease model.
The initial and most generally used method to test for gentle touch sensitivity is to stroke animals with an eyebrow hair that has been glued to the end of a toothpick (FIG. 4).
C. elegans expressing 110CAG fused in frame with TdTomato in mechanosensory neurons aggregate and induced neural impairment were used. […] The tissue in light grey is the marker for transgenesis (i.e. green fluorescent protein (GFP) expressed in the pharynx).
The test was carried out using non-treated animals (expressing 110Q::TdTomato and thus showing neuronal impairment) as a control C, and animals treated with Metformin at 2 mM were used as a positive control. Each test was carried out treating animals (expressing 110Q::TdTomato showing neuronal impairment) with 5, 10 and 20 μM concentrations of metal complex (II), using non-treated animals as a control and animals treated with Metformin at a concentration of 2 mM as a positive control.
Finally, it was tested whether the rescue of the neuronal impairment due to 110Q::TdTomato expression shown with the treatment of metal complex (II) is produced by activation of autophagy. […]

SMILES: CCN(CC)CCCC(C)Nc1ccnc2cc(Cl)ccc12 (stereo not shown) [Chloroquine, reference compound]
- % of individuals showing touch response, chloroquine alone: does not induce additional touch response impairment
